pIC50: −log10 of the molar value.
How the values were obtained:
human ACC1 = target: T1, human ACC1 (Homo sapiens, UniProt Q13085); test: Human ACC enzymatic activity assay (ACC1); assay type: biochemical; details: purified human ACC1; read-out: EA-CoA hACC 1 IC50
T1 construct: purchased BPS Bioscience
Procedure: (§1) Human ACC enzymatic activity assays were performed by using purified human ACC1 and ACC2 proteins (BPS Bioscience). ACC1 and ACC2 proteins were diluted in 24.5 μL reaction buffer (50 mM HEPES pH 7.5, 10 mM MgCl2, 2.0 mM DTT, 4.0 mM ATP, 15 mM ^13C-NaHCO3, 0.75 mg/mL BSA, 0.5 mM sodium citrate), and final concentrations of ACC1 and ACC2 were 0.4 μg/mL and 0.48 μg/mL. For each reaction, 0.5 μL of serial diluted compounds were prepared in DMSO in duplicate or triplicate and mixed with the above 24.5 μL reaction mixtures with ACC proteins at 37° C. for 10 min. Meanwhile, 25 μL of reaction buffer plus acetyl-CoA (final concentration: 5 μM) was prepared freshly and added to the above 25 μL mixture to initiate the reaction. After incubation at 37° C. for 1-2 hours, 100 μl ice-cold 10% TCA with malonyl-^13C3-CoA (final concentration: 40 nM, Sigma-Aldrich) was added to terminate the reaction. For LC-MS/MS analysis, 300 μL quenching buffer (acetonitrile:methanol=1:1, 20 μM carbutamide as internal standard) was added to each tube and mixed well. Samples were then centrifuged at 14,000 rpm for 10 min (Eppendorf) and supernatants were loaded onto LC-MS/MS for quantitation of […] (Gao et al., Journal of chromatography B, Analytical technologies in the biomedical and life sciences 853, 303-313 (2007)).
(§2) Shimadzu LC system was used for sample analysis consisting of system controller (Shimadzu CBM-20A), autosampler (Shimadzu SIL-20A), pump A and B (Shimadzu LC-20AD), column oven (Shimadzu CTO-20A), and analytical column (Phenomenex Gemini 5u C18 11A, 100×2 mm). LC was running at 200 μL/min in the binary gradient mode with mobile phase A (5 mM Ammonium Acetate and 5 mM DMBA in water (1,3-Dimethylbutylamine)) and B (methanol). The samples were analyzed on an AB Sciex QTrap4000 LC-MS/MS triple quadrupole mass spectrometer (Applied Biosystems). Malonyl-CoA and malonyl-13C-CoA were monitored in positive ion mode following MRM transitions at 854.2/347.1 and 855.1/246.1, respectively. The product and internal standard were coeluted to the mass spectrometer in 3 s with 50% H2O, 25% MeCN, 25% acetone, and 5 mM ammonium acetate. Ion chromatograms were integrated using the Analyst 1.5.2 software. Peak area ratios were compared against a standard curve and final cellular concentration of malonyl-CoA or production rate of malonyl-13C-CoA was calculated as pmoles/mg protein per minute.

human ACC2 = target: T2, human ACC2 (Homo sapiens, UniProt O00763); test: Human ACC enzymatic activity assay (ACC2); assay type: biochemical; details: purified human ACC2; read-out: EA-CoA hACC 2 IC50
T2 construct: purchased BPS Bioscience
T2 sequence (O00763 whole entry): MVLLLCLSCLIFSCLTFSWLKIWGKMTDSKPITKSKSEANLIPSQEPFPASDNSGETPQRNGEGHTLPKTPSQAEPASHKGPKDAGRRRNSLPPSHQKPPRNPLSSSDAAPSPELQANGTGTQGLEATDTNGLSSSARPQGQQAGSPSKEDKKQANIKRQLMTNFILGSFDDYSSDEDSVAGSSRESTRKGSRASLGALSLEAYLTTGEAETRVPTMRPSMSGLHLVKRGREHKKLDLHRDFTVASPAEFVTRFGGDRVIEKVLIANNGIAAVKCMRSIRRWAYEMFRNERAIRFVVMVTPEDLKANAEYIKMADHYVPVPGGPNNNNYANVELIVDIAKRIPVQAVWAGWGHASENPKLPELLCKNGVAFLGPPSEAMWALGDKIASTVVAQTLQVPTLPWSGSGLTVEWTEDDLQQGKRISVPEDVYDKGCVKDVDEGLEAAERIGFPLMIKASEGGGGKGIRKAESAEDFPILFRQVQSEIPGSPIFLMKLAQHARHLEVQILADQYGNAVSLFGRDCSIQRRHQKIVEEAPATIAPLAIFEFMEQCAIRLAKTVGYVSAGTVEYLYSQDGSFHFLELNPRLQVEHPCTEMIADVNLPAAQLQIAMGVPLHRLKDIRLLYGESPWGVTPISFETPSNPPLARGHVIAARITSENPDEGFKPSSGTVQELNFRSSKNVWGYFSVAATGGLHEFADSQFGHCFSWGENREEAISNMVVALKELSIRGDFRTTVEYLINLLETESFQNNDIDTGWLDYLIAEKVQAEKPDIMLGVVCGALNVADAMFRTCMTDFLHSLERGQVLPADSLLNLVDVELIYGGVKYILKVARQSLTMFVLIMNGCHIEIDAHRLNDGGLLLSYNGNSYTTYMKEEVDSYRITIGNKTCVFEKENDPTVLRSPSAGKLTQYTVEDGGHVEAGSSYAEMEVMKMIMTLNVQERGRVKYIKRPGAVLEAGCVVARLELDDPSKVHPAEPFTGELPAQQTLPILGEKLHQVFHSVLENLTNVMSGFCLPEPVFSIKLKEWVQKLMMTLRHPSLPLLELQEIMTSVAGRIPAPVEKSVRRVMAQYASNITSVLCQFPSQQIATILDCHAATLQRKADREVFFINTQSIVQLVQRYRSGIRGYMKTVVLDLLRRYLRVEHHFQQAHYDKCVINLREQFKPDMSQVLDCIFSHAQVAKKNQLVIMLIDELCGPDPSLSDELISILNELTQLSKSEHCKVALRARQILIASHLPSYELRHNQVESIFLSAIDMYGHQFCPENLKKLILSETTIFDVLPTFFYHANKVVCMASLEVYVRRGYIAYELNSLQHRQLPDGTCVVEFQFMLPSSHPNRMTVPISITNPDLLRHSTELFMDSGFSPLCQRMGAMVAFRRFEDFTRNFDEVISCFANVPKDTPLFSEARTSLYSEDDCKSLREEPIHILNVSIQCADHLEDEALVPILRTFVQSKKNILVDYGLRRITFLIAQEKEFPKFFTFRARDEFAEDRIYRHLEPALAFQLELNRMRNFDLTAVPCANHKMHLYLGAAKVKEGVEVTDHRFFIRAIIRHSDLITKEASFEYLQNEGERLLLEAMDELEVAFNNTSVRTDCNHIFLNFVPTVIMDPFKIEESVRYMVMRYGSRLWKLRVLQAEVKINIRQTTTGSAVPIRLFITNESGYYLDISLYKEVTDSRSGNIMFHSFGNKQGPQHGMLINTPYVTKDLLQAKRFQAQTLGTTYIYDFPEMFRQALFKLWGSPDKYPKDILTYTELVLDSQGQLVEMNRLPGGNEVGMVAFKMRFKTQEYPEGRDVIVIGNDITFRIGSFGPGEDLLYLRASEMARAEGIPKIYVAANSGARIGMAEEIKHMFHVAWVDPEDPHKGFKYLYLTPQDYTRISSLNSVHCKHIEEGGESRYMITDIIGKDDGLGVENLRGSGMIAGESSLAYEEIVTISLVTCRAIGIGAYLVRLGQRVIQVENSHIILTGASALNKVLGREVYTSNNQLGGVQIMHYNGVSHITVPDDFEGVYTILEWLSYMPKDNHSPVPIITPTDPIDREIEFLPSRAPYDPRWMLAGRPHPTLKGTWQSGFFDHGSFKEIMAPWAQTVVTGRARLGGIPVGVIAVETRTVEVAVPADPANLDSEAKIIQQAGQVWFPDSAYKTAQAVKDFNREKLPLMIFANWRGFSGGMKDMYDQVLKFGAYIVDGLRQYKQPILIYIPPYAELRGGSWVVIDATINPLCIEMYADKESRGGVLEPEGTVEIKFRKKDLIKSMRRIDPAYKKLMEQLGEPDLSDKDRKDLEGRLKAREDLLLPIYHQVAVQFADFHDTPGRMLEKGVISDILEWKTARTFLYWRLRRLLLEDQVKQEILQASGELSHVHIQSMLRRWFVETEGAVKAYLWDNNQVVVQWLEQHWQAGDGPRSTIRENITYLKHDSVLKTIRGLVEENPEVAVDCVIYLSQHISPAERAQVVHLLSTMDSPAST
Procedure: as §1, §2

[1] = PK study in male C57 mouse for Examples 14 and 15; assay type: in vivo; details: for concentration at 0.5 h: 0.50 h
Procedure: Pharmacokinetic studies were carried out with male C57 mouse. Compounds (Example 14 and Example 15) were each formulated in 5% DMSO+10% Solutol HS 15+85% Saline, and dosed at 1 mpk for IV injection (5 mL/kg) and 10 mpk for oral gavage (10 mUkg). Plasma samples at various time points were quantitated with LC-MS. Data reported were average of three mice.
Tables 1 and 2 below show plasma concentrations (ng/mL) and PK parameters of Example 14 in male C57 mouse after 1 mpk IV injection and 10 mpk PO gavage, respectively. The plasma concentration (ng/mL) of the acid compound, Example 15, was also measured and reported below.
Tables 3 and 4 below show plasma concentrations (ng/mL) and PK parameters of Example 15 in male C57 mouse after 1 mpk IV injection and 10 mpk PO gavage, respectively.

[2] = male, C57, mouse, plasma, iv, 1 mg/kg, Example 14 dosed 1 mpk IV, analyte = labelled compound
[3] = male, C57, mouse, plasma, iv, 1 mg/kg, Example 15 dosed 1 mpk IV
[4] = male, C57, mouse, plasma, po, 10 mg/kg, Example 14 dosed 10 mpk PO gavage, analyte = labelled compound
[5] = male, C57, mouse, plasma, po, 10 mg/kg, Example 15 dosed 10 mpk PO gavage
[6] = plasma, 1 mg/kg, Example 15 dosed 1 mpk IV

Q: Which results are given for `COc1cc(C(=O)N2CCC3(CC2)Cc2ccc(-c4cncc(C(=O)O)c4)cc2C(=O)O3)nc2c(OC)cccc12` [Example 15, 5-(1′-(4,8-dimethoxyquinoline-2-carbonyl)-1-oxospiro [isochroman-3,4′-piperidin]-7-yl)nicotinic acid]?
A: pIC50 (human ACC1): 7.56; pIC50 (human ACC2): 7.48; Plasma Concentration, Mean ([1]; Example 14 dosed 1 mpk IV, 24.00 h, analyte = labelled compound): BLQ; Plasma Concentration, Mean ([1]; Example 15 dosed 1 mpk IV, 4.00 h): BLQ; Plasma Concentration, Mean ([1]; Example 15 dosed 1 mpk IV, 8.00 h): BLQ; Plasma Concentration, Mean ([1]; Example 15 dosed 1 mpk IV, 24.00 h): BLQ; F ([1]; Example 15 dosed 10 mpk PO gavage): 1.7%; Plasma Concentration, Mean ([1]; Example 15 dosed 10 mpk PO gavage, 24.00 h): BLQ; concentration at 0.08 h [1, 2]: 122 ng/mL; concentration at 0.25 h [1, 2]: 161 ng/mL; concentration at 0.5 h [1, 2]: 107 ng/mL; concentration at 1 h [1, 2]: 55 ng/mL; concentration at 2 h [1, 2]: 16 ng/mL; concentration at 4 h ([1]; male, C57, mouse, plasma, iv, 1 mg/kg, Example 14 dosed 1 mpk IV, 4.00 h, analyte = labelled compound): 3.4 ng/mL; concentration at 8 h ([1]; male, C57, mouse, plasma, iv, 1 mg/kg, Example 14 dosed 1 mpk IV, 8.00 h, analyte = labelled compound): 1.5 ng/mL; MRT [1, 3]: 6.6 min; concentration at 0.08 h [1, 3]: 3010 ng/mL; concentration at 0.25 h [1, 3]: 414 ng/mL; concentration at 0.5 h [1, 3]: 95 ng/mL; concentration at 1 h [1, 3]: 28 ng/mL; concentration at 2 h [1, 3]: 6.6 ng/mL; concentration at 0.25 h [1, 4]: 152 ng/mL; concentration at 0.5 h [1, 4]: 168 ng/mL; concentration at 1 h [1, 4]: 146 ng/mL; concentration at 2 h [1, 4]: 84 ng/mL; concentration at 4 h ([1]; male, C57, mouse, plasma, po, 10 mg/kg, Example 14 dosed 10 mpk PO gavage, 4.00 h, analyte = labelled compound): 43 ng/mL; concentration at 8 h ([1]; male, C57, mouse, plasma, po, 10 mg/kg, Example 14 dosed 10 mpk PO gavage, 8.00 h, analyte = labelled compound): 23 ng/mL; concentration at 24 h ([1]; male, C57, mouse, plasma, po, 10 mg/kg, Example 14 dosed 10 mpk PO gavage, 24.00 h, analyte = labelled compound): 2.1 ng/mL; Cmax [1, 4]: 185 ng/mL; MRT [1, 4]: 186 min; Tmax [1, 4]: 34.8 min; Cmax [1, 5]: 164 ng/mL; MRT [1, 5]: 59.4 min; Tmax [1, 5]: 15 min; concentration at 0.25 h [1, 5]: 164 ng/mL; concentration at 0.5 h [1, 5]: 99 ng/mL; concentration at 1 h [1, 5]: 63 ng/mL; concentration at 2 h [1, 5]: 11 ng/mL; concentration at 4 h ([1]; male, C57, mouse, plasma, po, 10 mg/kg, Example 15 dosed 10 mpk PO gavage, 4.00 h): 3.2 ng/mL; concentration at 8 h ([1]; male, C57, mouse, plasma, po, 10 mg/kg, Example 15 dosed 10 mpk PO gavage, 8.00 h): 2 ng/mL; Vd [1, 6]: 0.49 L/kg; clearance [1, 6]: 23.3 mL/min/kg; half-life [1, 6]: 17.4 min
